One test has as its system TXNIP mRNA. In words: TXNIP mRNA expression (RT-PCR) in human 1.1B4 pancreatic β cells. It counts as cell-based. Particulars: 1.1B4 β cells, 25 mM glucose, 72 h (FIG. 12 left). As to the method:
FIG. 12. […] Human 1.1B4 β cells were cultured in 25 mM glucose with C1 (uM) for 72 h. Total RNA was prepared. RT-PCR was performed. Data shown are the mean+SEM from triplicates. Statistical analysis was performed for each column vs. HG DMSO using one-way ANOVA: *<0.0001.
RNA extraction and quantitative RT-PCR. RNA was extracted using the Direct-zol™ RNA MiniPrep Plus (Zymo Research). Reverse transcription of RNA samples into cDNA was performed using the GeneAmp RNA PCR Kit (Applied Biosystems), dNTP (from Roche Applied Science), Rnase inhibitor, MULV Reverse Transcriptase and Random hexamers reagent (all from Invitrogen). Diluted cDNA was quantified using real-time PCR performed with Power SYBR Green qPCR MasterMix (Applied Biosystem) and 7500 real-time PCR system (Applied Biosystems). The HPRT1 gene was used as an internal control.

For a further test, the target named is T1, TXNIP-TRX complex (Homo sapiens, UniProt Q9H3M7).
T1 construct: Co-immunoprecipitation (Co-IP) of TXNIP with TRX in THP 1 monocytes cells treated with compounds under high glucose condition; endogenous in cells; host or cells: THP1 human monocytes cultured in 25 mM glucose
T1 sequence (Q9H3M7 1-391): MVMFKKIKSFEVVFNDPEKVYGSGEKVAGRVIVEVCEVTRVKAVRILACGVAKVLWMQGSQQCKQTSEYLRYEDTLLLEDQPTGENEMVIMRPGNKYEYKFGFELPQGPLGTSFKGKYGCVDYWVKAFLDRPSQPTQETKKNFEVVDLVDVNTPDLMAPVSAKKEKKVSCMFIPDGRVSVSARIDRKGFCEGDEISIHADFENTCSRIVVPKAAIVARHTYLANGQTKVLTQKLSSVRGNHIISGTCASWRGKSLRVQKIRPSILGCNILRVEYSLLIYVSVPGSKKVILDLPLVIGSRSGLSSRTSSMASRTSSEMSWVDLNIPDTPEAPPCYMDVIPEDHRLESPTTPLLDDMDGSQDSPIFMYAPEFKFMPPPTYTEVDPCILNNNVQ
In words: Co-IP of TXNIP with TRX in THP1 monocytes treated with compounds under high glucose. It counts as cell-based. As to the method:
FIGS. 4A-4B. Co-IP with anti-TRX in THP 1 cells treated with compounds under high glucose condition. THP1 cells were treated by 10 uM compounds over night, then glucose was added up to 25 mM. The cells were cultured for 72-96 h. Cell extracts were prepared using cell extract buffer (Thermo Fisher Scientific) and Co-IP were performed with mouse anti-TRX (abcam).
Assay 1: Co-immunoprecipitation (Co-IP) of TXNIP with TRX in THP 1 monocytes cells treated with compounds under high glucose condition. In this assay, we looked for compounds that can interfere with the interaction between TXNIP and TRX in THP-1 monocytes treated with HG. So here compounds are added to cells in culture. […] So we picked the candidates only if the results are repeatable.
Co-IP with compounds treated THP1 under high glucose condition. THP1 cells were treated with compounds (2.5 uM) overnight and glucose was add to 25 mM and culture for 3-5 days, then coIP were carried using co-IP protocol.
1. Transfer the cultured cells from the culture dish to a 15-mL conical tube. 2. Centrifuge at 500×g for 2 min at 4° C. and remove the supernatant. 3. Wash with ice-cold PBS and centrifuge at 500×g for 2 min at 4° C. Remove the supernatant. 4. Repeat Step 3 twice.
5. Resuspend the cell pellet in ice-cold cell lysis buffer (1 mL per 1×10^7 cells) and incubate on ice for 10 min. 6. Sonicate cells in ice bath three times for 5 second pulses each. 7. Centrifuge at 13,000×g at 4° C. for 10 min, and transfer the supernatant to a fresh tube. Store the tube on ice for further use, or for long storage at −80° C.
8. Resuspend the magnetic beads by pipetting up and down for several times. 9. Transfer 20 μL of bead slurry to a fresh tube. Place the tube in a magnetic separation rack […]. Carefully remove the supernatant once the solution is clear. 10. […]
Note: Pre-clearing the lysate is recommended to reduce the non-specific binding. However, if the protein is detected by western blotting, pre-clearing may not be necessary unless a contaminating protein is interfering with visualization of the protein of interest. […]

Entries after “also recorded” stand apart in the source; their conditions may differ.

Results on 1 molecule are retold here after patent US11974990B2, “TXNIP-TRX complex inhibitors and methods of using the same” (City of Hope, priority 2018, dated 2024).

For the molecule `CC(C)C(C(=O)O)N1C(=O)c2ccncc2C1=O` (stereo not drawn) [Compound C1, 2-(1,3-dioxo-1,3-dihydro-2H-pyrrolo[3,4-c]pyridin-2-yl)-3-methylbutanoic acid], the “TXNIP mRNA expression” value with TXNIP mRNA was “affects TXNIP and TNF-α mRNA expression; also recorded: strongly inhibited TXNIP mRNA expression”. For the same molecule, the “TXNIP association/interaction with TRX (co-IP, blot with TXNIP antibody)” value at TXNIP-TRX complex (THP1, 25 mM glucose, 5 uM C1, 16-72 h time course, nuclear cell extracts) was “Inhibition of TXNIP-TRX interaction; also recorded: significantly reduced at 48 h”. Moreover, the “HG-induced TXNIP-TRX co-IP band intensity” value at TXNIP-TRX complex (THP1 cells, compounds added to cells in culture overnight, glucose to 25 mM, 72-96 h, anti-TRX IP) was “inhibit high glucose-induced TXNIP-TRX co-immunoprecipitation; also recorded: reproducibly shows a reduction in the HG-induced band”.
